In one test the target is T1, HSF-PLA2 (Homo sapiens, UniProt P14555).
T1 construct: extracellular enzyme obtained from human synovial fluid (HSF-PLA2); from tissue; host or cells: pooled human synovial fluid, added at 0.1% (v/v)
T1 sequence (P14555 21-144): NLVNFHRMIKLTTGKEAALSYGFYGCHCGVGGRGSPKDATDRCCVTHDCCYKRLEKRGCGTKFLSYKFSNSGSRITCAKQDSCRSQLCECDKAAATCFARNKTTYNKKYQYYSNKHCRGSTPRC
In words: Assay for Inhibition of HSF-PLA2 In Vitro. Conditions: for IC50: read-out: Inhib of HSF-PLA2 IC50; for inhibition at 1 µM / inhibition at 5 µM: read-out: Inhib of HSF-PLA2, % inhibition. Type of test: biochemical. How it is done:
Assay for Inhibition of HSF-PLA2 In Vitro
The PLA2 used in this test is the extracellular enzyme obtained from human synovial fluid (HSF-PLA2).
The optimal conditions which were developed for the assay of HSF-PLA2 inhibitors are summarized as follows. […] The reaction was initiated by the addition of HSF-PLA2 and duplicate samples of the mixture were incubated in 13×100 mm glass tubes with shaking for 30 minutes at 37° C. […] The extraction of lipids from the stopped reaction mixture was conducted by the further additions of […] of chloroform and 1 ml of water with mixing. After centrifuging, the lower chloroform phase was transferred to smaller glass tubes and the solvent was evaporated to dryness with a nitrogen stream. The extracted lipid residue was redissolved in 50 μl of a solution containing carrier oleic acid (0.2 mg/ml) of chloroform-methanol [9 to 1, v/v]). The whole lipid extract was applied to a preactivated (30 minutes at 110° C.) silica gel-impregnated glass fiber thin layer chromatography sheet (ITLC type SG sheet from Gelman Sciences, Inc., Ann Arbor, Mich.) using hexane-acetic acid (100 to 1, v/v) as the developing solvent. This TLC system rapidly (6 minutes) resolved the enzymatically released product, ^14 C-oleic acid, from the unreacted ^14 C-phospholipid substrate. The unsaturated lipids were located on the chromatogram by a brief exposure to iodine vapor. […] A control incubation of substrate in the absence of HSF-PLA2 was performed in each experiment.

A further test concerns PLA2 Rat Paw Edema. As to the kind of experiment: Phospholipase A2 Rat Paw Edema. Type of test: in vivo, Lewis rats. Conditions: for inhibition in vivo at 30 mg/kg: Rattus norvegicus, 2 hr, read-out: % Inhib of PLA2 Rat Paw Edema 2 hr (30 mg/kg). The protocol:
Phospholipase A2 Rat Paw Edema
Representation compounds of the invention were tested in rats to determine their ability to inhibit the acute inflammatory response induced by the injection of snake venom phospholipase A2. Test compounds are administered intraperitoneally or orally to groups of seven Lewis rats (≈200 gm) 1 hr prior to phospholipase A2 administration. The test compounds are dissolved in dimethyl sulfoxide for intraperitoneal administration and dissolved or suspended in Labrafil M-1944CS for oral administration. At 0 hr, 5 ug (10 units) of purified phospholipase A2 from Naja naja venom (Sigma Chem. Co.) dissolved in 0.1 mL of pyrogen free saline is injected subplantarly into the right hind paw to elicit the inflammatory response. The volume (in mL) of the right hind paw is measured by immersion of the paw to the level of the lateral malleolus in an aqueous plethysmometer immediately prior to the injection of phospholipase A2 and then at 0.5, 2 and 4 hr after phospholipase A2 injection. The paw edema is calculated by subtracting the zero time reading from the readings taken after injection. The percent change of the edema volume from the vehicle treated control is calculated to determine the activity of the test compound. Statistical analysis of the mean paw edema values of the control versus the treated groups is performed using Student's t-test. Significance of changes from mean value for vehicle-treated animals (*p<0.05, **p<0.01, ***p<0.001, ns/not significant).

Test [1] has as its system Croton Oil Mouse Ear Edema. As to the kind of experiment: Croton Oil Mouse Ear Edema Test. As to conditions: topical, coapplied, 6 hours. Type of test: in vivo, CD-1 mice.
Procedure: Twenty five μl of a 1% croton oil solution [dissolved in a mixture of pyridine/water/diethyl ether at a ratio of 5/20/75 (croton oil vehicle)] are applied to the outer side of the right ear of 3-4 week old made CD-1 mice (8 animals per group). The test compounds are dissolved directly in the 1% croton oil solution at various concentrations and coapplied. Control animals receive 25 μl of croton oil vehicle on the right ear. Biopsy punches are removed at 6 hours from the right ear of the animals using a 6 mm skin trephine (Roboz, Washington, D.C.) and the wet weight of the ear punches is determined. The weight of the biopsy punches is a measure of ear inflammation, primarily edema. The data are expressed as percent inhibition relative to control groups.

Each structure is given as a SMILES string.

The text below walks through data of US5324747A, “N-substituted anilines, inhibitors of phospholipases A2” (Hoffmann-La Roche Inc., priority 1992, dated 1994).

A word on the IC50: it is the midpoint of a concentration-inhibition curve. Regarding `CCCCCCCCCCCCCCCCCCNC(=O)c1cccc(N(CC(=O)O)CC(=O)O)c1` [Example 42], the IC50 at HSF-PLA2 amounted to 400 nM. The inhibition in vivo at 30 mg/kg in the test on PLA2 Rat Paw Edema is 38%. Further, the “% Inhib of Croton Oil Mouse Ear Edema (1 mg)” value (“% Inhib … (1 mg)” below) in test [1] was 0%.
`CCCCCCCCCCCCCCCCCCOc1cc(OCCO)cc(N(CC(=O)O)CC(=O)O)c1` [Example 58a, N-(carboxymethyl)-N-[3-(2-hydroxyethoxy)-5-(octadecyloxy)phenyl]glycine]: the concentration for half-maximal inhibition (IC50) on HSF-PLA2 came to 200 nM. For the same molecule, the inhibition in vivo at 30 mg/kg in the test on PLA2 Rat Paw Edema amounted to 29%. The “% Inhib … (1 mg)” value in test [1] worked out at 0%.
As for `CCCCCCCCCCCCCCCCCCOc1cc(OCC(=O)O)cc(N(CC(=O)O)CC(=O)O)c1` [Example 58c, N-[3-(carboxymethoxy)-5-(octadecyloxy)phenyl]-N-(carboxymethyl)glycine], at HSF-PLA2, the IC50 was 2800 nM. Also, in the test with PLA2 Rat Paw Edema, the inhibition in vivo at 30 mg/kg amounted to 39%. In test [1], the “% Inhib … (1 mg)” value is reported as 0%.
As to `CCCCCCCCCCCCCCCCCCOc1cc(OCCCOc2ccc(C(=O)OC)cc2)cc(N(CC(=O)O)CC(=O)O)c1` [Example 58o, N-(carboxymethyl)-N-[3-[3-[4-(methoxycarbonyl)phenoxy)propoxy]-5-(octadecyloxy)phenyl]glycine], the IC50 on HSF-PLA2 was 100 nM. Moreover, the inhibition in vivo at 30 mg/kg in the test on PLA2 Rat Paw Edema turned out to be 0%. The “% Inhib … (1 mg)” value in test [1] is 30%.
The inhibition is the change of the read-out against control, counted positive when it falls. For the molecule `CCCCCCCCCCCCCCOc1cc(C(=O)OC)cc(N(CC(=O)O)CC(=O)O)c1` [Example 69a, N-(carboxymethyl)-N-[(3-methoxycarbonyl)-5-(tetradecyloxy)phenyl]glycine], the inhibition at 1 µM on HSF-PLA2 worked out at 52%. Moreover, the inhibition in vivo at 30 mg/kg in the test with PLA2 Rat Paw Edema was found to be 12%. Also, in test [1], the “% Inhib … (1 mg)” value amounted to 71%.
On to `CCCCCCCCCCCCCCCCCCOc1cc(C(=O)OC)cc(N(CC(=O)O)CC(=O)O)c1` [Example 69, N-(Carboxymethyl)-N-[3-(methoxycarbonyl)-5-(octadecyloxy)phenyl]glycine], for which the IC50 at HSF-PLA2 was 100 nM. The inhibition in vivo at 30 mg/kg with PLA2 Rat Paw Edema stood at 57%. Besides, the “% Inhib … (1 mg)” value in test [1] is given as 22%.
Regarding `CCCCCCCCCCCCCCCCCCOc1cc(N)cc(N(CC(=O)O)CC(=O)O)c1` [Example 94, N-(Carboxymethyl)-N-[3-amino-5-(octadecyloxy)phenyl]glycine], the IC50 at HSF-PLA2 came out at 420 nM. Besides, the inhibition in vivo at 30 mg/kg with PLA2 Rat Paw Edema is 28%. In test [1], the “% Inhib … (1 mg)” value is reported as 10%.
For `CCCCCCCCCCCCCCCCCC(=O)Oc1cccc(N(CC(=O)O)CC(=O)O)c1` [Example 36b], on HSF-PLA2, the IC50 worked out at 200 nM. Also, in the test with PLA2 Rat Paw Edema, the inhibition in vivo at 30 mg/kg came out at 0%. Also, the “% Inhib … (1 mg)” value in test [1] is listed as 61%.
As to `CCCCCCCCCCN(CCCCCCCCCC)C(=O)c1cccc(N(CC(=O)O)CC(=O)O)c1` [Example 174], the inhibition at 5 µM at HSF-PLA2 is 74%. Further, the inhibition in vivo at 30 mg/kg in the test with PLA2 Rat Paw Edema was determined as 46%. Besides, the “% Inhib … (1 mg)” value in test [1] is 29%.
As to `CCCCCCCCCCCCCCCCCCOc1cc(O)cc(N(CC(=O)O)CC(=O)O)c1` [Example 81, N-(Carboxymethyl)-N-[3-hydroxy-5-(octadecyloxy)phenyl]glycine], the IC50 at HSF-PLA2 came out at 230 nM. For the same molecule, the “% Inhib of PLA2 Rat Paw Edema 2 hr” value with PLA2 Rat Paw Edema ((10 mg/kg)) was 44%. Further, in test [1], the “% Inhib … (1 mg)” value was found to be 69%.
In the case of `CCCCCCCCCCCCCCCCCCNC(=O)Nc1cccc(N(CC(=O)O)CC(=O)O)c1` [Example 36e, N-(carboxymethyl)-N-[3-[[(octadecylamino)carbonyl]amino]phenyl]glycine], the inhibition at 5 µM on HSF-PLA2 turned out to be 74%. The inhibition in vivo at 30 mg/kg in the test on PLA2 Rat Paw Edema is 30%. Also, in test [1], the “% Inhib … (1 mg)” value amounted to 31%.
As to `CCCCCCCCCCCCCCCCCCOc1cc(N(CC(=O)O)CC(=O)O)cc([N+](=O)[O-])c1` [Example 93, N-(Carboxymethyl)-N-[3-nitro-5-(octadecyloxy)phenyl]glycine], the inhibition at 1 µM at HSF-PLA2 was found to be 56%. The inhibition in vivo at 30 mg/kg in the test on PLA2 Rat Paw Edema is 20%. In addition, the “% Inhib … (1 mg)” value in test [1] came out at 0%.
Regarding `CCCCCCCCCCOc1cc(OCCCCCCCCCC)cc(N(CC(=O)O)CC(=O)OCCN(CC)CC)c1.Cl` [Example 33, N-(2-Diethylaminoethoxy-2-oxoethyl)-N-[3,5-bis(decyloxy)phenyl]glycine monohydrochloride salt], at HSF-PLA2, the inhibition at 1 µM was -5%. Besides, the inhibition in vivo at 30 mg/kg with PLA2 Rat Paw Edema was 15%. Also, in test [1], the “% Inhib … (1 mg)” value is reported as 25%.
For the molecule `CCCCCCCCCCCCCCOC(=O)c1cc(C(=O)OCCCCCCCCCCCCCC)cc(N(CC(=O)O)CC(=O)O)c1` [Example 25, N-(Carboxymethyl)-N-[3,5-bis[(tetradecyloxy)carbonyl]phenyl]glycine], the inhibition at 1 µM on HSF-PLA2 was 48%. For the same molecule, the inhibition in vivo at 30 mg/kg with PLA2 Rat Paw Edema was 17%. The “% Inhib … (1 mg)” value in test [1] was determined as 62%.
In the case of `CCCCCCCCCCCCCCCCCCOc1cc(OCc2ccc3ccccc3n2)cc(N(CC(=O)O)CC(=O)O)c1` [Example 148, N-(Carboxymethyl)-N-[3-(octadecyloxy)-5-[(2-quinolinyl)methoxy]phenyl]glycine], at HSF-PLA2, the inhibition at 1 µM came out at 91%. Moreover, in the test with PLA2 Rat Paw Edema, the inhibition in vivo at 30 mg/kg is 37%. In addition, the “% Inhib … (1 mg)” value in test [1] is given as 26%.
Consider `CCCCCCCCCCCCCCCCCCOc1cc(OCCCOc2ccc(O)cc2)cc(N(CC(=O)O)CC(=O)O)c1` [Example 58l, N-(carboxymethyl)-N-[3-[3-(4-hydroxyphenoxy)propoxy]-5-(octadecyloxy)phenyl]glycine], for which the inhibition at 1 µM at HSF-PLA2 is 81%. The inhibition in vivo at 30 mg/kg with PLA2 Rat Paw Edema was found to be 53%. Also, in test [1], the “% Inhib … (1 mg)” value came out at 76%.
With `CCCCCCCCCCCCCCCCCCOc1cc(OCCCOc2ccc(OC)cc2)cc(N(CC(=O)O)CC(=O)O)c1` [Example 58k, N-(carboxymethyl)-N-[3-[3-(4-methoxyphenoxy)propoxy]-5-(octadecyloxy)phenyl]glycine], the IC50 at HSF-PLA2 was 50 nM. For the same molecule, the inhibition in vivo at 30 mg/kg in the test on PLA2 Rat Paw Edema amounted to 0%. Further, the “% Inhib … (1 mg)” value in test [1] came to 85%.
In the case of `COC(=O)CCCCCCCCCCOc1cc(OCCCCCCCCCCC(=O)OC)cc(N(CC(=O)O)CC(=O)O)c1` [Example 6j, N-(carboxymethyl)-N-[3,5-bis[(11-methoxy-11-oxoundecyl)oxy]phenyl]glycine], at HSF-PLA2, the IC50 came out at 300 nM. For the same molecule, the inhibition in vivo at 30 mg/kg with PLA2 Rat Paw Edema is 0%. Also, in test [1], the “% Inhib … (1 mg)” value is 66%.
The corresponding values for `CCCCCCCCCCCCCCCCCCOc1cc(OCCCCC(=O)O)cc(N(CC(=O)O)CC(=O)O)c1` [Example 65, N-[3-(4-Carboxybutoxy)-5-(octadecyloxy)phenyl]-N-(carboxymethyl)glycine] are 860 nM, 35% and 91%.
With `CCCCCCCCCCCCCCOc1ccc(N(CC(=O)O)CC(=O)O)cc1OCCCCCCCCCCCCCC` [Example 119, N-(Carboxymethyl)-N-[3,4-bis(tetradecyloxy)phenyl]glycine], the inhibition at 1 µM on HSF-PLA2 is 36%. Further, the inhibition in vivo at 30 mg/kg in the test with PLA2 Rat Paw Edema turned out to be 16%. In addition, the “% Inhib … (1 mg)” value in test [1] came out at 49%.
On to `CCCCCCCCCC(=O)Oc1ccc(N(CC(=O)O)CC(=O)O)cc1OC(=O)CCCCCCCCC` [Example 123, N-(Carboxymethyl)-N-[3,4-bis[(1-oxodecyl)oxy]phenyl]glycine], for which, on HSF-PLA2, the IC50 was determined as 480 nM. The inhibition in vivo at 30 mg/kg in the test with PLA2 Rat Paw Edema came to 4%. In test [1], the “% Inhib … (1 mg)” value came to 58%.
For `CCCCCCCCCCOC(=O)c1cc(C(=O)OCCCCCCCCCC)cc(N(CC(=O)O)CC(=O)O)c1` [Example 6v, N-(carboxymethyl)-N-[3,5-bis[(decyloxy)carbonyl]phenyl]glycine], at HSF-PLA2, the inhibition at 1 µM was found to be 73%. Moreover, the inhibition in vivo at 30 mg/kg with PLA2 Rat Paw Edema worked out at 9%. Further, the “% Inhib … (1 mg)” value in test [1] amounted to 80%.
